Data on 13 molecules can be found in US9598364B2, “Indolyl or indolinyl hydroxamate compounds” (Taipei Medical University, priority 2010, dated 2017).

One data set concerns HL60. The experiment in a line: cells. As for the experimental part:
(§1) 10^4 cells per well were seeded in 96-well culture plates with or without one of the test compounds. Various concentrations for the test compound were examined. […] The drug concentration resulting in total growth inhibition (TGI) is determined when Ti=Tz.
(§2) Cells were seeded in a 96-well flat-bottomed plate (2,500 to 3,000 cells per well). […] After being incubated at 37° C. for 2 h, the supernatant was removed and 200 μl/well of DMSO were added to dissolve the remaining MTT dye. The absorbance at 570 nm in each well was determined using a plate reader.

A further data set concerns K562. The experiment in a line: cells. As for the experimental part:
as §1, §2

The next data set deals with NB4. The experiment in a line: cells. The protocol:
as §1, §2

In another data set the test system is U937. The experiment in a line: cells. The protocol: as §1, §2
The subject of the next data set is Kasumi-1. The data set is described as follows: MTT cell viability assay, Kasumi-1. It is filed as cell-based. In general terms: Tetrazolium assays rely on reduction of a dye to a coloured formazan, in cell work by metabolically active cells.
In data set [1] the test system is A549 (non-small cell lung cancer). The data set is described as follows: SRB assay, A549. It is filed as cell-based, Human. Particulars: A549 cells, 48 h. The protocol:
(§3) Human cancer A549 (non-small cell lung cancer), MDA-MB-231 (estrogen-independent breast cancer), Hep 3B (hepatoma), and HA22T (hepatoma) cells were seeded in 96-well plates in medium with 5% FBS. After 24 h, cells were fixed with 10% trichloroacetic acid (TCA) to represent cell population at the time of compound addition (T0). After additional incubation of DMSO or test compound for 48 h, cells were fixed with 10% TCA and SRB at 0.4% (w/v) in 1% acetic acid was added to stain cells. Unbound SRB was washed out by 1% acetic acid and SRB bound cells were solubilized with 10 mM Trizrna base. The absorbance was read at a wavelength of 515 nm. Using the absorbance measurements of time zero (T0), the control group (C), and the cell growth in the presence of the compound (Ti), the percentage growth was calculated at each of the compound concentrations levels.
In general terms: The SRB assay estimates cell density from bound dye.

Data set [2] relates to MDA-MB-231 (estrogen-independent breast cancer). The experiment in a line: SRB assay, MDA-MB-231. It is filed as cell-based. Particulars: Homo sapiens, MDA-MB-231 cells, 48 h. As for the experimental part:
as §3

Another data set relates to Hep 3B (hepatoma). The data set is described as follows: SRB assay, Hep 3B. It is filed as cell-based. As to conditions: Homo sapiens, Hep3B, Hep-3B cells, 48 h, read-out: Hep-3B liver GI50. The protocol: as §3
For a further data set, the system named is HA22T (hepatoma). The data set is described as follows: SRB assay, HA22T. Particulars: HA22T cells, 48 h, read-out: HA22T liver GI50. It is filed as cell-based, Human. As for the experimental part: as §3
Another data set deals with PC-3 cells. The experiment in a line: Western blot analysis. It is filed as cell-based. Particulars: PC-3 cells, 1, 2.5, or 5 μM, 48 hours. The protocol:
PC-3 cells treated with a test compound at 1, 2.5, or 5 μM in RPMI 1640 supplemented with 10% FBS for 48 hours. The cells were collected and sonicated. Protein concentrations in the resultant lysates were determined by a Bradford protein assay kit (Bio-Rad, Hercules, Calif.). The protein lysate, containing the same amount of proteins, were subjected to 10% SDS-polyacrylarnide gel (10%) electrophoresis. The proteins on the gel were then transferred onto an Immobilon-nitrocellulose membrane (Millipore, Bellerica, Mass.) in a semi-dry transfer cell. The transblotted membrane was washed twice with tris-buffered saline containing 0.1% Tween 20 (TBST). After being blocked with TBST containing 5% nonfat milk for 40 min, the membrane was incubated with a primary antibody specific to Acetyl-H3 (antibody obtained from Upstate Biotechnology, Inc., Lake Placid, N.Y.), H3 (Upstate Biotechnology), Acetyl α-tubulin (Sigma-Aldrich, St. Louis, Mo.), phospho-Akt (Serine 473) (Cell Signaling Technologies, Danvers, Mass.), Akt (Cell Signaling Technologies), Acetyl p53 (Santa Cruz Biotechnology, Santa Cruz, Calif.), p53 (Santa Cruz Biotechnology), p21 (Santa Cruz Biotechnology), or α-tubulin (Sigma-Aldrich, St. Louis, Mo.) (1:3000 dilution) in TBST/1% nonfat milk at 4 overnight. The membrane was washed three times with TBST for a total of 15 min and then incubated with a goat anti-rabbit or anti-mouse IgG antibody conjugated with horseradish (diluted 1:3000) for 1 h at room temperature. After being washed for at least three times with TBST, the signal intensity for each protein band was determined.
For orientation: Immunoblotting shows a protein as a band on a membrane.

[3] abbreviates: HL60 leukemia cells, MTT, 48 or 72 hr.
The mark [4] stands for this setting: K562 leukemia cells, MTT, 48 or 72 hr.
Where [5] appears, read: NB4 leukemia cells, MTT, 48 or 72 hr.
[6] abbreviates: U937 leukemia cells, MTT, 48 or 72 hr.
Setting [7] is: Kasumi-1 leukemia cells, MTT, 48 or 72 hr.

Where two headings read alike, the source gives them in different places.

Take `Nc1ccn([C@@H]2O[C@H](CO)[C@@H](O)[C@@H]2O)c(=O)n1` [Ara-C, reference compound]: the GI50 (usually the concentration giving 50% growth inhibition) with HL60 (setting [3]) is 445 nM; in the data set on K562 (setting [4]) it was above 10000 nM; in the data set on NB4 (setting [5]), 448 nM; in the data set on U937 (setting [6]), 46.6 nM; in the data set on Kasumi-1 (setting [7]), above 10000 nM. Further, the TGI (usually the concentration at which net growth stops) in the data set with HL60 (setting [3]) was 4344.3 nM; with K562 (setting [4]), above 10000 nM; with NB4 (setting [5]) it was 2324.0 nM; in the data set on U937 (setting [6]), 109.7 nM; in the data set with Kasumi-1 (setting [7]), above 10000 nM. Moreover, the CC50 in the data set on K562 (read-out: LC50, K562 leukemia cells, MTT, 48 or 72 hr) is above 10000 nM; in the data set on NB4 (read-out: LC50, NB4 leukemia cells, MTT, 48 or 72 hr) it was 7320 nM; in the data set with U937 (read-out: LC50, U937 leukemia cells, MTT, 48 or 72 hr) it was 665 nM; in the data set with Kasumi-1 (Kasumi-1 leukemia cells, MTT, 48 or 72 hr, read-out: LC50 (the source's name)), above 10000 nM.
For the molecule `O=C(C=Cc1ccc2c(ccn2S(=O)(=O)c2ccccc2)c1)NO` [Compound 3, 3-(1-Benzenesulfonyl-1H-indol-5-yl)-N-hydroxy-acrylamide], the TGI is 535.8 nM with HL60 (setting [3]); above 10000 nM with K562 (setting [4]); 500.9 nM in the data set with NB4 (setting [5]); 440.0 nM in the data set with U937 (setting [6]); 393.0 nM with Kasumi-1 (setting [7]). Besides, the GI50 is 242 nM in the data set with HL60 (Homo sapiens, HL-60); 9020 nM in the data set with K562 (Homo sapiens, K562); 223 nM in the data set on NB4 (Homo sapiens, NB-4); 162 nM with U937 (Homo sapiens, U-937); 96.6 nM with Kasumi-1 (Homo sapiens, Kasumi-1 leukemia cells, MTT, 48 or 72 hr); 960 nM in data set [1] (Homo sapiens). The results for the GI50 (in data set [2]; with Hep 3B (hepatoma); in the data set on HA22T (hepatoma) (Homo sapiens)) were 480 nM, 410 nM and 1150 nM, respectively. In addition, the CC50 is above 10000 nM with K562 (Homo sapiens, K562, read-out: LC50); 779 nM in the data set on NB4 (Homo sapiens, NB-4, read-out: LC50); 718 nM in the data set on U937 (Homo sapiens, U-937, read-out: LC50); 694 nM in the data set with Kasumi-1 (Homo sapiens, Kasumi-1 leukemia cells, MTT, 48 or 72 hr, read-out: LC50 (the source's name)). Also, in the data set with PC-3 cells, the H3 expression result is reported as “upregulated”. For the same molecule, the histone deacetylation result in the data set on PC-3 cells was “inhibited”. In the data set on PC-3 cells, the tubulin acetylation result is on record as “upregulated”.
As for `COc1ccc(S(=O)(=O)n2ccc3cc(C=CC(=O)NO)ccc32)cc1` [Compound 4, N-hydroxy-3-[1-(4-methoxy-benzenesulfonyl)-1H-indol-5-yl]-acrylamide], the GI50 in [1] (Homo sapiens) amounted to 1310 nM; in [2], 750 nM; in the data set on Hep 3B (hepatoma) it was 550 nM; in the data set on HA22T (hepatoma) (Homo sapiens) it was 1560 nM.
On the same counts, the results for `O=C(C=Cc1ccc2c(ccn2S(=O)(=O)c2ccc(F)cc2)c1)NO` [Compound 5, 3-[1-(4-fluoro-benzenesulfonyl)-1H-indol-5-yl]-N-hydroxy-acrylamide] are 1590 nM, 660 nM, 640 nM and 2300 nM.
The corresponding values for `O=C(C=Cc1ccc2c(ccn2S(=O)(=O)c2ccc([N+](=O)[O-])cc2)c1)NO` [Compound 6, N-hydroxy-3-[1-(4-nitro-benzenesulfonyl)-1H-indol-5-yl]-acrylamide] are 2120 nM, 750 nM, 560 nM and 1980 nM.
On the same counts, the results for `Nc1ccc(S(=O)(=O)n2ccc3cc(C=CC(=O)NO)ccc32)cc1` [Compound 7, 3-[1-(4-Amino-benzenesulfonyl)-1H-indol-5-yl]-N-hydroxy-acrylamide] are above 10000 nM, above 10000 nM, above 10000 nM and above 10000 nM.
For `COc1ccc(S(=O)(=O)n2ccc3cc(C=CC(=O)NO)ccc32)cc1OC` [Compound 8, 3-[1-(3,4-dimethoxy-benzenesulfonyl)-1H-indol-5-yl]-N-hydroxy-acrylamide], the GI50 was determined as 930 nM in [1] (Homo sapiens), 370 nM in data set [2], 360 nM in the data set with Hep 3B (hepatoma) and 930 nM in the data set with HA22T (hepatoma) (Homo sapiens).
As to `COc1ccc(S(=O)(=O)N2CCc3cc(C=CC(=O)NO)ccc32)cc1` [Compound 13, N-hydroxy-3-[1-(4-methoxy-benzenesulfonyl)-2,3-dihydro-1H-indol-5-yl]-acrylamide], the concentration for 50% growth inhibition (GI50) in data set [1] (Homo sapiens) amounted to 320 nM; in [2] it was 160 nM; in the data set on Hep 3B (hepatoma) it was 140 nM; in the data set with HA22T (hepatoma) (Homo sapiens), 540 nM.
For `O=C(C=Cc1ccc2c(c1)CCN2S(=O)(=O)c1ccc(F)cc1)NO` [Compound 14, 3-[1-(4-fluoro-benzenesulfonyl)-2,3-dihydro-1H-indol-5-yl]-N-hydroxy-acrylamide], the GI50 in data set [1] (Homo sapiens) amounted to 600 nM; in [2] it was 370 nM; with Hep 3B (hepatoma) it was 250 nM; in the data set with HA22T (hepatoma) (Homo sapiens), 1200 nM.
The corresponding values for `O=C(C=Cc1ccc2c(c1)CCN2S(=O)(=O)c1ccc([N+](=O)[O-])cc1)NO` [Compound 15, N-hydroxy-3-[1-(4-nitro-benzenesulfonyl)-2,3-dihydro-1H-indol-5-yl]-acrylamide] are 800 nM, 450 nM, 280 nM and 740 nM.
The corresponding values for `Nc1ccc(S(=O)(=O)N2CCc3cc(C=CC(=O)NO)ccc32)cc1` [Compound 16, 3-[1-(4-amino-benzenesulfonyl)-2,3-dihydro-1H-indol-5-yl]-N-hydroxy-acrylamide] are above 10000 nM, above 10000 nM, above 10000 nM and above 10000 nM.
The corresponding values for `COc1ccc(S(=O)(=O)N2CCc3cc(C=CC(=O)NO)ccc32)cc1OC` [Compound 17, 3-[1-(3,4-dimethoxy-benzenesulfonyl)-2,3-dihydro-1H-indol-5-yl]-N-hydroxy-acrylamide] are 320 nM, 190 nM, 160 nM and 620 nM.
As for `O=C(CCCCCCC(=O)Nc1ccccc1)NO` [SAHA, reference compound], the GI50 in the data set with HL60 (setting [3]) is 455 nM; in the data set on K562 (setting [4]) it was above 10000 nM; in the data set on NB4 (setting [5]), 303 nM; with U937 (setting [6]) it was 590 nM; in [1], 2370 nM; with HA22T (hepatoma), 2240 nM. Further, the TGI in the data set with HL60 (setting [3]) is given as 811.9 nM; with K562 (setting [4]) it was above 10000 nM; in the data set with NB4 (setting [5]) it was 615.8 nM; with U937 (setting [6]) it was 2006.9 nM; with Kasumi-1 (setting [7]) it was 604.75 nM. Also, the CC50 with K562 is above 10000 nM; with NB4, 928 nM; in the data set on U937 it was 5850 nM; in the data set with Kasumi-1, 917 nM. Further, the H3 expression result in the data set on PC-3 cells was “upregulated”. In addition, the histone deacetylation entry with PC-3 cells was “inhibited”. In addition, the tubulin acetylation entry in the data set on PC-3 cells is listed as “upregulated”.
